Assay results as given in patent US20230295152A1 (SENDA BIOSCIENCES, INC., priority 2019, published 2023).
Where two headings read alike, the source gives them in different places.

Key:
Type in all cases: in vitro ADME
[1] = Hepatocyte Stability Assay, human; settings: human, plated hepatocytes, plated hepatocyte
[2] = Plasma Protein Binding with Ultracentrifugation Method, human; settings: human plasma, 1.0 μM; read-out: Human plasma protein binding (% bound)
Procedure: The frozen plasma (stored at −80° C.) was thawed in a 37° C. water bath, followed by centrifugation at 3,220 g for 10 minutes to remove clots. The supernatant was removed into a new tube as the spun plasma. The spun plasma was pre-warmed in a 37° C. water bath for 10 minutes. The stock solutions of test compounds were diluted to 200 μM in DMSO, and then spiked into the plasma. Duplicate samples were prepared. The final concentration of compound was 1.0 μM. The final concentration of organic solvent was 0.5%. Warfarin was used as positive control in the assay. 1.0 mL of the spiked plasma was transferred to a new balance ultracentrifuge tube. Samples were incubated at 37° C., 5% CO2 for 30 minutes. After incubation, the balance ultracentrifuge tubes were centrifuged at 600,000 g for 5.5 hours at 37° C. After centrifugation, 50 μL solution was removed from the center of the ultracentrifuge tubes as the post-ultracentrifugation samples, followed by the addition of 50 μL blank plasma and 400 μL quench solution (acetonitrile containing internal standards (IS, 100 nM Alprazolam, 500 nM Labetalol and 2 μM Ketoprofen)) to precipitate protein and release compounds. Samples were vortexed for 2 minutes, followed by centrifugation at 20,000 g for 15 minutes at room temperature. The supernatant was diluted with ultrapure water and then used for LC-MS/MS analysis. Stability samples was prepared by transferring 50 μL of the spiked plasma to 0.6 mL tubes and incubated at 37° C., 5% CO2 for 0.5 and 6 hours. After incubation, 50 μL PBS (100 mM, pH7.4) and 400 μL quench solution were added to the stability samples. And then stability samples were treated the same way as the post-ultracentrifugation samples. The supernatant was diluted with ultrapure water and then used for LC-MS/MS analysis. 0.5 hour time point samples were also used as no-spun controls. Time 0 samples were prepared by transferring 50 μL spiked plasma to 0.6 mL tubes containing 50 μL PBS, followed by the addition of 400 μL quench solution to precipitate protein and release compound. And then these samples were treated the same way as the post-ultracentrifugation samples. The supernatant was diluted with ultrapure water and then used for LC-MS/MS analysis.
Data Analysis: All calculations were carried out using Microsoft Excel. The concentrations of test compound in plasma samples and post-ultracentrifugation plasma was determined from peak areas. The percentages of test compound bound was calculated as follows: […]
“+++” indicates a % bound value less than 50, “++” indicates a % bound value between 50 and 75, and “+” indicates a % bound value above 75.

[3] = target: T1, CYP2D6 (Homo sapiens, UniProt P10635); experiment: CYP Inhibition Assay in human liver microsomes, CYP2D6; settings: pH 7.4
T1 construct: from tissue; host or cells: human liver microsomes (HLM)
Procedure: Stock solutions of test compounds were prepared in DMSO at the concentrations of 10 mM. Stock solution was diluted to 2 mM with acetonitrile. The final concentration of test compounds was 10 μM. For the stock solution preparation, if the positive control could not be well dissolved in the mixture of DMSO and acetonitrile (1:4) at the highest concentration, another mixture of acetonitrile and DMSO, the mixture of acetonitrile and H2O or DMSO will be used to dissolve the compound.
The substrate solutions are stored in a −20° C. freezer and warmed to room temperature prior to use.
Preparation of Phosphate Buffer (100 mmol/L, pH 7.4): To prepare the Solution A, 7.098 g of disodium hydrogen phosphate were weighed out and added into 500 mL of pure water, then sonicated to dissolve the content. To prepare the Solution B, 3.400 g of potassium dihydrogen phosphate were weighed out and added into 250 mL of pure water, then sonicated to dissolve the content. Solution A was placed on a stirrer and slowly Solution B was added into Solution A until the pH reached 7.4. Preparation of 10 mmol/L NADPH Solution: NADPH was dissolved at 8.334 mg/mL in phosphate buffer; the solution was freshly prepared prior to use.
The master solution was prepared according to Table 45. The incubation was carried out in 96 deep well plates. The following volumes were dispensed into each well of the incubation plate: 179 μL of the substrate and HLM mixture in phosphate buffer, 1 μL of the compound working solution, or vehicle (mixture of DMSO and acetonitrile (1:4)). The incubation plate was placed into the water bath and pre-warmed at 37° C. for 15 minutes before the reactions was started by the addition of 20 μL of 10 mmol/L NADPH solution in phosphate buffer. After the addition of NADPH, the incubation plate was incubated at 37° C. for corresponding time. The assay was performed in duplicate.
The reaction was quenched by the addition of 1.5 volume (300 μL) of cold acetonitrile containing 3% formic acid and internal standards (200 nM Labetalol, 200 nM Alprazolam and 200 nM tolbutamide). The plate was centrifuged at 3,220 g for 40 minutes. 100 μL of the supernatant was transferred to a new plate. The supernatant was diluted with 100 μL pure water. The samples were mixed well and analyzed using UPLC/MS/MS.
Data Analysis: The automatic peak integration areas are checked for all the samples. The Analyte Peak Area and Internal Standard Peak Area are exported into excel spreadsheet. The inhibition of each P450 enzyme in human liver microsomes is measured as the percentage decrease in the activity of marker metabolite formation compared to non-inhibited controls (=100% activity).
The percentage of remaining activity was calculated as follows:
Area Ratio=Peak Area Analyte/Peak Area Internal Standard Remaining Activity (%)=Area Ratio test compound/Area Ratio vehicle*100% Inhibition %=100-Remaining Activity (%)

[4] = Hepatocyte Stability Assay, mouse; settings: mouse hepatocytes; also: tested at 1 µM
Procedure: Example 7: Hepatocyte Stability Assay
• Preparation of working solutions: 10 mM stock solutions of test compound and positive control were prepared in DMSO. In separate conical tubes, the 10 mM solution of test compound and the positive control were diluted to 100 μM by combining 198 μL of 50% acetonitrile/50% water and 2 μL of 10 mM stock.
Data Analysis: All calculations were carried out using Microsoft Excel. Peak areas were determined from extracted ion chromatograms. In vitro half-life (t1/2) of parent compound was determined by regression analysis of the percent parent disappearance vs. time curve.
The in vitro half-life (in vitro t1/2) was determined from the slope value:
Conversion of the in vitro t1/2 (in min) into the in vitro intrinsic clearance (in vitro CLint, in μL/min/1×10^6 cells) was done using the following equation (mean of duplicate determinations):
V=incubation volume(0.2 mL);
N=number of hepatocytes per well(0.1×10^6 cells).

[5] = Alliance assay, read-out: Human hepatocyte clearance Plated hepatocyte Alliance assay
[6] = Pharmaron assay, read-out: Human hepatocyte clearance Plated hepatocyte Pharmaron assay

T1 sequence (P10635 whole entry): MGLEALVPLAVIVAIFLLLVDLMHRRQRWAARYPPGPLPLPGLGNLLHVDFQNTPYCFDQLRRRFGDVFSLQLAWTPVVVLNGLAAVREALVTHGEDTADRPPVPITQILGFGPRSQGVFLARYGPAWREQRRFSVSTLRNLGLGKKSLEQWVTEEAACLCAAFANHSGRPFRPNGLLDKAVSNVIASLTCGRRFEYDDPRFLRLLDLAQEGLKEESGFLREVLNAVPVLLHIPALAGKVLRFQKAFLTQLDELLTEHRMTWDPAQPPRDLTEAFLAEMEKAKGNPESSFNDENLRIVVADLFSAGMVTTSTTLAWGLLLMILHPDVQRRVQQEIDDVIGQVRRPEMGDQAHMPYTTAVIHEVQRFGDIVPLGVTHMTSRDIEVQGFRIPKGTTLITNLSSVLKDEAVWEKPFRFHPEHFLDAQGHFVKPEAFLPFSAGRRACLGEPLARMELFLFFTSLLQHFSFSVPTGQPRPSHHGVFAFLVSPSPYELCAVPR

fraction unbound at 30 min, 1 μM [2] | inhibition at 10 µM [3] [%] | SMILES | Mouse hepatocyte clearance [4] | other results
< 0.25 | 10.9 | C[C@@H](CO)n1cnc2c(-c3cnn(C)c3)nc(-c3ccc(C(F)(F)F)nc3)cc2c1=O [Compound 68] |  | CLint scaled [1, 5]: < 20 mL/min/kg
< 0.25 | 8 | O=c1c2cc(-c3ccc(C(F)(F)F)nc3)nc(-c3cccnc3)c2ncn1[C@@H]1COC[C@H]1O [Compound 79] |  | CLint scaled [1, 6]: < 20 mL/min/kg
< 0.25 | 7.27 | C[C@@H](CO)n1cnc2c(-c3cccnc3)nc(-c3ccc(C4CC4)nc3)cc2c1=O [Compound 74] | + (“+” indicates an CLint above 50 mL/min/Kg) | 
< 0.25 | 8.96 | C[C@@H](CO)n1cnc2c(-c3cnn(C)c3)nc(-c3ccc(Cl)cc3)cc2c1=O [Compound 27] |  | 
< 0.25 |  | C[C@@H](CO)n1cnc2c(-c3cccc(F)c3)nc(-c3ccc(C(F)(F)F)cn3)cc2c1=O [Compound 47, (S)-8-(3-fluorophenyl)-3-(1-hydroxypropan-2-yl)-6-(5-(trifluoromethyl)pyridin-2-yl)pyrido[3,4-d]pyrimidin-4(3H)-one] |  | 
< 0.25 | 8.7 | Cn1cc(-c2nc(-c3ccc(C(F)(F)F)cn3)cc3c(=O)n(CC(C)(C)O)cnc23)cn1 [Compound 103, 3-(2-hydroxy-2-methylpropyl)-8-(1-methyl-1H-pyrazol-4-yl)-6-(5-(trifluoromethyl)pyridin-2-yl)pyrido[3,4-d]pyrimidin-4(3H)-one] |  | 
< 0.25 |  | C[C@@H](CO)n1cnc2c(-n3ccnc3)nc(-c3ccc(OC(F)(F)F)cc3)cc2c1=O [Compound 44, (S)-3-(1-hydroxypropan-2-yl)-8-(1H-imidazol-1-yl)-6-(4-(trifluoromethoxy)-phenyl)pyrido[3,4-d]pyrimidin-4(3H)-one] |  | 
< 0.25 |  | C[C@@H](n1cnc2c(-c3cccnc3)nc(-c3ccc(Cl)cc3)cc2c1=O)C(C)(C)O [Compound 33] |  | 
< 0.25 |  | Cn1cc(-c2nc(-c3ccc(C(F)(F)F)nc3)cc3c(=O)n(CC(C)(C)O)cnc23)cn1 [Compound 60] | ++ (“++” indicates a CLint between 20 and 50 mL/min/Kg) | CLint scaled [1, 6]: < 20 mL/min/kg

More lines, now with the values behind:

SMILES | fraction unbound at 30 min, 1 μM [2] | inhibition at 10 µM [3] [%] | Mouse hepatocyte clearance [4] | other results
C[C@@H](CO)n1cnc2c(-c3cnn(C)c3)nc(-c3ccc(C4CC4)nc3)cc2c1=O [Compound 83] |  |  |  | CLint scaled [1, 5]: < 20 mL/min/kg
O=c1c2cc(-c3ccc(Cl)cc3)nc(-c3cccnc3)c2ncn1[C@H]1COC[C@@H]1O [Compound 125, 6-(4-chlorophenyl)-3-((3S,4R)-4-hydroxytetrahydrofuran-3-yl)-8-(pyridin-3-yl)pyrido[3,4-d]pyrimidin-4(3H)-one] | < 0.25 | 20.6 |  | CLint scaled [1, 6]: < 20 mL/min/kg
C[C@@H](CO)n1cnc2c(-c3cccnc3)nc(-c3ccc(C(F)(F)F)cc3)cc2c1=O [Compound 23] |  |  |  | CLint scaled [1, 6]: < 20 mL/min/kg
C[C@@H](CO)n1cnc2c(-c3cccc(F)c3)nc(-c3ccc(Cl)cc3)cc2c1=O [Compound 7] | < 0.25 | 6.78 | ++ (“++” indicates a CLint between 20 and 50 mL/min/Kg) | 
Cc1ccc(-c2cc3c(=O)n([C@@H](C)CO)cnc3c(-c3cccnc3)n2)cc1 [Compound 17, (S)-3-(1-hydroxypropan-2-yl)-8-(pyridin-3-yl)-6-(p-tolyl)pyrido[3,4-d]pyrimidin-4(3H)-one] | < 0.25 |  | + (“+” indicates an CLint above 50 mL/min/Kg) | 
Cn1cc(-c2nc(-c3ccc(Cl)cc3)cc3c(=O)n(CC(C)(C)O)cnc23)cn1 [Compound 21] | < 0.25 |  | ++ (“++” indicates a CLint between 20 and 50 mL/min/Kg) | 
C[C@@H](CO)n1cnc2c(-c3cccc(F)c3)nc(-c3ccc(C(F)(F)F)nc3)cc2c1=O [Compound 8] | < 0.25 |  |  | 
C[C@@H](CO)n1cnc2c(-c3cnsc3)nc(-c3ccc(Cl)cc3)cc2c1=O [Compound 58] |  |  | ++ (“++” indicates a CLint between 20 and 50 mL/min/Kg) | 
O=c1c2cc(-c3ccc(C(F)(F)F)nc3)nc(-c3cccnc3)c2ncn1C[C@H](O)C(F)(F)F [Compound 57] |  |  |  | CLint scaled [1, 5]: < 20 mL/min/kg
C[C@@H](CO)n1cnc2c(-n3ccnc3)nc(-c3ccc(C(F)(F)F)nc3)cc2c1=O [Compound 163, (S)-3-(1-hydroxypropan-2-yl)-8-(1H-imidazol-1-yl)-6-(6-(trifluoromethyl)pyridin-3-yl)pyrido[3,4-d]pyrimidin-4(3H)-one] |  |  |  | CLint scaled [1, 5]: < 20 mL/min/kg
C[C@@H](CO)n1cnc2c(-c3cccnc3)nc(-c3ccc(OC(F)(F)F)cc3)cc2c1=O [Compound 22] | < 0.25 |  | ++ (“++” indicates a CLint between 20 and 50 mL/min/Kg) | 
O=c1c2cc(-c3ccc(Cl)cc3)nc(-c3cccnc3)c2ncn1C[C@@H](O)C(F)(F)F (single isomer, unassigned) [185 enantiomer 1] |  |  | + (“+” indicates an CLint above 50 mL/min/Kg) | 
O=c1c2cc(-c3ccc(Cl)cc3)nc(-c3cccnc3)c2ncn1C[C@H](O)C(F)(F)F (single isomer, unassigned) [185 enantiomer 2] |  |  | + (“+” indicates an CLint above 50 mL/min/Kg) | 
C[C@@H](CO)n1cnc2c(-c3cncc(F)c3)nc(-c3ccc(OC(F)(F)F)cc3)cc2c1=O [Compound 1, (S)-8-(5-fluoropyridin-3-yl)-3-(1-hydroxypropan-2-yl)-6-(4-(trifluoromethoxy)phenyl)pyrido[3,4-d]pyrimidin-4(3H)-one] | < 0.25 |  |  | 
